Results reported in patent US12351574B2, “Selective ligands for modulation of GIRK channels” (Northeastern University, priority 2018, dated 2025).

What was measured:
GIRK1/2 = biological target: T1, GIRK1/2 (UniProt P48542+P48549); assay: current inhibition by light-activated phosphatase 5-ptaseOCRL, HEK293 whole-cell patch-clamp, GIRK1/2; assay type: cell-based, human GIRK1, mouse GIRK2; set-up: expressed in transfected cells; details: for percentage of GIRK1/2 channel current remaining following activation of 5-ptaseOCRL (in words) / τ of current-inhibition, GIRK1/2 (in words): 10 μM compound versus control; for protection from current inhibition, rank order, GIRK1/2: current levels and kinetics of inhibition
T1 sequence (P48549 1-501): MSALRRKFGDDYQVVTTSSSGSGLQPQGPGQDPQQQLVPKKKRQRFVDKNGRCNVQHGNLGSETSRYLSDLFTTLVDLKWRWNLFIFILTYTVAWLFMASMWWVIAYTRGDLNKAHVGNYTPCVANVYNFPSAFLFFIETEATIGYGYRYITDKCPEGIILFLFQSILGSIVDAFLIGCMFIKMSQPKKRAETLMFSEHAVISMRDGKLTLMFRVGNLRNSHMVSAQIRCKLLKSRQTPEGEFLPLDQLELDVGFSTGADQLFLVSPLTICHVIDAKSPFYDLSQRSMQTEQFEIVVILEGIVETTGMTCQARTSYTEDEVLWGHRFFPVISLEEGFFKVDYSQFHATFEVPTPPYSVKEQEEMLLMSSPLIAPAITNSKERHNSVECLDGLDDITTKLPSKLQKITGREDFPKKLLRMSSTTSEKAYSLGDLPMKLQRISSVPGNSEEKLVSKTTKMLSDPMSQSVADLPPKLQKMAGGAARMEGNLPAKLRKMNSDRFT
T1 sequence (P48542 1-425): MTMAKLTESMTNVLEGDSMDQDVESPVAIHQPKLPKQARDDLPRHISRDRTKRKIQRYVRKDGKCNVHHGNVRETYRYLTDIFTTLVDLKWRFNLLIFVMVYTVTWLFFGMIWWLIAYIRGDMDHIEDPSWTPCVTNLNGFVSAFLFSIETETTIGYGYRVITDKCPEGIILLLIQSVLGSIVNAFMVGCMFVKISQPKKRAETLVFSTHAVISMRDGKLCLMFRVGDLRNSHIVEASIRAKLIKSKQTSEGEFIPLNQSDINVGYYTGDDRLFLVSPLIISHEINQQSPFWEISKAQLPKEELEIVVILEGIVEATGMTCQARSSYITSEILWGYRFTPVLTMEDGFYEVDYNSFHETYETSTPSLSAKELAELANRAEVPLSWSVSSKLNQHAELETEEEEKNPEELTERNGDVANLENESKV
Source text: (§1) The inventors next pursued whole-cell patch-clamp experiments to further validate the model predictions and excised-patch results. Expression of a light-activated phosphatase that upon exposure to blue light dephosphorylates PI(4,5)P2 to PI(4)P and inhibits GIRK currents allowed recording of macroscopic currents in the absence and presence of ML297 and the two brain-specific GAT compounds. […] Since GAT1508 and ML297 only bind GIRK1 or GIRK1-like (i.e. “FD-containing”, “FD”=mimics the contribution of GIRK1 residues F137 and D173, see Example 2) subunits resulting in corresponding changes in channel-PIP2 interactions and channel activity, the inventors next sought to compare channel subunit specific interactions with PIP2 for subunits bound to the ligand (P-FD) versus those not bound to the ligand (P-WT) (FIGS. 19, 38A).
(§2) Culture of HEK293 cells: HEK293-T cells were obtained from ATCC and maintained in DMEM medium supplemented with 10% FBS and 1% penicillin and streptomycin (Hyclone). For patch-clamp studies, cells were seeded on glass coverslips and transfected 24-hours later using a polyethylenimine solution (1 mg/ml) at a ratio of 8 μl per μg of DNA. To study GIRK-currents, cells were transfected with 0.75 μg each of plasmids encoding GIRK1, GIRK2 or GIRK4 as indicated. In the optogenetic experiments, cells were co-transfected with plasmids encoding 5-ptaseOCRL and CIBN-CAAX, as previously described. 5-ptaseOCRL and CIBN-CAAX were a kind gift from the DeCamilli lab, Yale CT. All experiments were performed at room temperature 24-36 hours post transfection.
Light-activated phosphatase system: The inventors used a light-activated phosphatase system to dephosphorylate PIP2 that is comprised of two fusion proteins: CRY2-5-ptaseOCRL contains the photolyase domain of cryptochrome 2 (CRY2) and the inositol 5-phosphatase domain of the […] oculocerebrorenal syndrome protein (OCRL), while CIBN-CAAX contains the CRY2 binding domain (CIBN) and a C-terminal CAAX box for plasma membrane targeting. When CRY2-5-ptaseOCRL and CIBN-CAAX fusion proteins are co-expressed and exposed to blue light between 458-488 nm, the 5-ptase is localized to the plasma membrane, where it dephosphorylates PIP2. […] The 5-ptaseOCRL system was activated using a 460 nm LED (Luminus) that was focused on the cells through the objective lens of an inverted microscope (Nikon).
Patch-clamp recording: Whole-cell currents were recorded with an Axopatch 200B amplifier (Molecular Devices) controlled via a USB-interface (National Instruments) using WinWCP software (University of Strathclyde). Currents were acquired through a lowpass Bessel filter at 2 kHz and were digitized at 10 kHz. […] Cells for study were selected based on GFP expression using an epifluorescence microscope (Nikon). […] Cells were perfused via a multi-channel gravity-driven perfusion manifold with a physiological buffer comprising: 135 mM NaCl, 5 mM KCl, 1.2 mM MgCl2, 1.5 mM CaCl2, 8 mM Glucose, and 10 mM HEPES; pH 7.4, then quickly transitioning to a high-K^+ buffer comprising 5 mM NaCl, 135 mM KCl, 1.2 mM MgCl2, 1.5 mM CaCl2, 8 mM Glucose, and 10 mM HEPES; pH 7.4. The barium-sensitive component of the current, observed when cells were perfused with the high-K^+ buffer, was analyzed and was determined by perfusing 5 mM BaCl2 in the high-K^+ buffer at the end of each experiment. The 5-ptaseOCRL system was activated using a 460 nm LED (Luminus) that was focused on the cells through the objective lens of an inverted microscope (Nikon). […] ML297, GAT1508 or GAT1521 were maintained as 10 mM stock solutions in DMSO and were diluted to concentrations between 10 μM and 1 nM using the high K^+ buffer for patch-clamp experiments.

GIRK1/4 = biological target: T2, GIRK1/4 (Homo sapiens, UniProt P48544+P48549); assay: current inhibition by light-activated phosphatase 5-ptaseOCRL, HEK293 whole-cell patch-clamp, GIRK1/4; assay type: cell-based; set-up: expressed in transfected cells; details: HEK-293 cells
T2 sequence (P48549 1-501): T1 sequence (P48549 1-501)
T2 sequence (P48544 1-419): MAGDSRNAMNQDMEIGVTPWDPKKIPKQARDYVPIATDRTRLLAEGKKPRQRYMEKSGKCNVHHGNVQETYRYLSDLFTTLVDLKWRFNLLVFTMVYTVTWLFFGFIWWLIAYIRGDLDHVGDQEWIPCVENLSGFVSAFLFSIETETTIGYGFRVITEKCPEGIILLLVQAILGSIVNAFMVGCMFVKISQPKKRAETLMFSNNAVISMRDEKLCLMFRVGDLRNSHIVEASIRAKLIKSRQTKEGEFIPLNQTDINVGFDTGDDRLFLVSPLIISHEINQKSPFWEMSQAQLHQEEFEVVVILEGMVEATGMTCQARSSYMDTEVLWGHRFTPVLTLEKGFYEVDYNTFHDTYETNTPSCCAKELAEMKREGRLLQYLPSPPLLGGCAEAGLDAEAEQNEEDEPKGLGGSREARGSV
Source text: as §1
as §2, with “transfection. […]” for “transfection.”
Patch-clamp recording: Whole-cell currents were recorded with an Axopatch 200B amplifier (Molecular Devices) controlled via a USB-interface (National Instruments) using WinWCP software (University of Strathclyde). […] The barium-sensitive component of the current, observed when cells were perfused with the high-K^+ buffer, was analyzed and was determined by perfusing 5 mM BaCl2 in the high-K^+ buffer at the end of each experiment. […]

percentage of GIRK1/2 channel current remaining following activation of 5-ptaseOCRL (in words) (GIRK1/2)	τ of current-inhibition, GIRK1/2 (in words) (GIRK1/2)	protection from current inhibition, rank order, GIRK1/2 (GIRK1/2)	protection of GIRK1/4 currents from inhibition by the light-activated phosphatase (in words) (GIRK1/4)	SMILES
increase	increase	GAT1508>GAT1521>ML297>Control	not	Cc1cc(NC(=O)Nc2ccc(Br)s2)n(-c2ccccc2)n1 [GAT1508, 1-(5-bromothiophen-2-yl)-3-(3-methyl-1-phenyl-1H-pyrazol-5-yl)urea]
increase	increase	GAT1508>GAT1521>ML297>Control	not	Cc1cc(NC(=O)Nc2ccc(C)s2)n(-c2ccccc2)n1 [GAT1521, 1-(3-methyl-1-phenyl-1H-pyrazol-5-yl)-3-(5-methylthiophen-2-yl)urea]
increase	increase	GAT1508>GAT1521>ML297>Control	some protection	Cc1cc(NC(=O)Nc2ccc(F)c(F)c2)n(-c2ccccc2)n1 [ML297, reference compound]
